From patent publication US20260242416A1, “ANTIMICROBIAL PEPTIDES” (priority 2023, published 2026)
In brackets after ≈: the same amount, converted by molar mass. Entries after “also recorded” stand apart in the source; their conditions may differ. Where a SMILES comes first, the peptide text is derived from it.

Legend:
[1] = system: E. coli ATCC 25922, Salmonella Enteritidis, S. aureus ATCC 29213; experiment: Broth microdilution, panel result (at least one / all strains), Example 2; type: cell-based; parameters: key to inhibitory activity (asterisk): *Indicates inhibitory activity; settings: Table 14; against at least one of E. coli ATCC 25922, Salmonella Enteritidis, S. aureus ATCC 29213
Summary of the method: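 CLSI broth microdilution adapted for cationic peptides, in MHB with a final inoculum of 2-8×10^5 cfu/mL in polypropylene plates. Peptides were serially diluted from 128 down to 0.5 μg/mL and incubated 20-24 h at 37° C. MIC is the lowest concentration with no visible growth.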

[2] = system: Escherichia coli ATCC 25922; experiment: Antimicrobial susceptibility testing (MIC/MBC), Example 1; type: cell-based; settings: Table 3; footnote: wild-type Escherichia coli ATCC 29522; minimum of three independent experiments
Method: Twenty-one putative AMP sequences identified using the rAMPage pipeline were validated through a minimum of three AST experiments performed independently on separate days. In these tests, the AMP activity was assessed using two metrics: minimum inhibitory concentration and minimum bactericidal concentration (MIC and MBC, respectively). MIC and MBC values were determined using procedures outlined by the Clinical and Laboratory Standards Institute (CLSI), with the recommended adaptations for the testing of cationic AMPs described previously. “Wild-type” strains of Escherichia coli (E. coli 25922) and Staphylococcus aureus (S. aureus 29213) were purchased from the American Type Culture Collection (ATCC; Manassas, VA, USA) and were used for screening of antimicrobial activity. Briefly, putative AMPs were synthesized by Genscript (Piscataway, NJ, USA) and received in lyophilized format. These peptides were suspended using ultrapure water (Life Technologies, Grand Island, NY, USA; Invitrogen cat #10977-015), and an 11 μL two-fold serial dilution of 1280 to 2.5 μg/mL was prepared in duplicate rows in a 96-well microtiter plate, before being combined with 100 μL standardized bacterial inoculum yielding a final duplicate testing range of 128 to 0.25 μg/mL. The bacterial inoculum was prepared using colonies isolated on non-selective agar and combined with Mueller Hinton Broth. This suspension was measured and adjusted to achieve an optical density of 0.08-0.1, equivalent to a 0.5 McFarland standard (1-2×10^8 cfu/mL). The inoculum was then diluted to a target concentration of 5±3×10^5 cfu/mL; total viable counts from the final inoculum were routinely performed to confirm the target bacterial density was achieved. […] The MIC and adjacent wells were plated onto non-selective agar; the concentration in which killed 99.9% of the inoculum following additional overnight incubation was determined to be the MBC.

[3] = system: S. aureus ATCC 29213; type: cell-based, Staphylococcus aureus; settings: Table 14, third value of the cell; three independent experiments; highest concentration tested 128
Summary of the method: (§1)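 MIC taken as lowest peptide level showing no visible growth after 20-24 h at 37° C. Twofold series 128-0.5 μg/mL in Mueller-Hinton broth, polypropylene plates, final inoculum 2-8×10^5 cfu/mL, per CLSI with cationic-peptide adaptations.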

[4] = system: Salmonella enterica serovar Enteritidis (human clinical isolate); type: cell-based; settings: for MIC (ug/mL) S. Enteritidis: Table 14, second value of the cell, three independent experiments, highest concentration tested 128
Summary of the method: as §1

[5] = system: E. coli ATCC 25922; type: cell-based, Escherichia coli; settings: for MIC (ug/mL) E. coli: Table 14, first value of the cell, three independent experiments, highest concentration tested 128
Summary of the method: as §1

[6] = system: porcine red blood cells; experiment: Hemolysis assay (HC50), Example 2; settings: up to 128 μg/mL
Method: Peptides were evaluated for toxicity using three independent hemolysis experiments. Whole blood from healthy donor pigs, supplemented with Na Citrate, was purchased from Lampire Biological Laboratories (Pipersville, PA, USA). Red blood cells (RBCs) were washed and isolated by three centrifugation cycles using Roswell Park Memorial Institute medium (RPMI; Thermo-Fisher Scientific) to create a 1% (v/v) RBC solution. […] Following a minimum 30 min incubation at 37° C., plates were centrifuged and % volume from each supernatant was transferred to a new 96-well plate. The absorbance of these wells was measured at 415 nm. To quantify hemolytic activity and determine the AMP concentration that lyses 50% of the RBCs (HC50), absorbance reading from wells containing RBCs treated with 11 μL of a 2% TritonX-100 detergent solution (TX-100) or RPMI (AMP solvent-only) were used to define 100% and 0% hemolysis, respectively. All centrifugation steps were performed at 500× g for five minutes in an Allegra-6R centrifuge (Beckman Coulter, Brea, CA, USA).

[7] = alamarBlue cell viability assay (cytotoxicity); type: cell-based, human; settings: human, HEK293 cells, at 128 μg/mL
Method: (§2) The human embryonic kidney cell line HEK293 and the corresponding growth media and supplements were purchased from the ATCC. The cells were maintained in Eagle's Minimum Essential Medium (EMEM) supplemented with 10% fetal bovine serum (FBS) and 1% Penicillin-Streptomycin solution and grown in a 5% CO2 incubator at 37° C. […] Cells were incubated overnight to allow them to adhere. […] TX-100 was diluted to 2% in UltraPure deionized water and added as a positive control. Complete growth medium was added to the peptides and TX-100 containing wells. Spent growth medium of wells with adhered cells was replaced with the contents of wells containing serially diluted peptides or TX-100. Cells were incubated for four hours at 37° C. in 5% CO2 incubator. Growth medium containing peptides or TX-100 was replaced with fresh growth medium containing 10% (v/v) alamarBlue (Bio-Rad Laboratories, Hercules, CA, USA) and incubated for 20 h. Fluorescence was measured at excitation of 540 nm and emission of 590 nm in a Cytation 5 plate reader (Agilent BioTek, Winooski, VT, USA) and results recorded and analyzed with Gen5 software (Agilent BioTek, Winooski, VT, USA). The average fluorescence reads of TX-100 and growth media only wells were used to calculate 0% and 100% cell viability, respectively. The percentage of viable cells at each peptide concentration was determined by Formula 1: […]

[8] = system: HEK293 cells; experiment: alamarBlue cell viability assay (cytotoxicity); type: cell-based, human; settings: concentrations up to 128 μg/mL
Method: as §2

[9] = system: Staphylococcus aureus ATCC 29213; type: cell-based; settings: Table 3; wild-type Staphylococcus aureus ATCC 29213; minimum of three independent experiments
Method: Twenty-one putative AMP sequences identified using the rAMPage pipeline were validated through a minimum of three AST experiments performed independently on separate days. In these tests, the AMP activity was assessed using two metrics: minimum inhibitory concentration and minimum bactericidal concentration (MIC and MBC, respectively). MIC and MBC values were determined using procedures outlined by the Clinical and Laboratory Standards Institute (CLSI), with the recommended adaptations for the testing of cationic AMPs described previously. “Wild-type” strains of Escherichia coli (E. coli 25922) and Staphylococcus aureus (S. aureus 29213) were purchased from the American Type Culture Collection (ATCC; Manassas, VA, USA) and were used for screening of antimicrobial activity. Briefly, putative AMPs were synthesized by Genscript (Piscataway, NJ, USA) and received in lyophilized format. […] This suspension was measured and adjusted to achieve an optical density of 0.08-0.1, equivalent to a 0.5 McFarland standard (1-2×10^8 cfu/mL). […]

In the case of `CC[C@H](C)[C@H](NC(=O)CN)C(=O)N[C@@H](CC(C)C)C(=O)N[C@H](C(=O)N[C@@H](CC(=O)O)C(=O)N[C@H](C(=O)N[C@@H](CC(C)C)C(=O)N[C@@H](CCCCN)C(=O)NCC(=O)N[C@@H](C)C(=O)N[C@@H](C)C(=O)N[C@@H](CCCCN)C(=O)N[C@@H](CC(N)=O)C(=O)N[C@H](C(=O)N[C@@H](C)C(=O)NCC(=O)N[C@H](C(=O)N[C@@H](CC(C)C)C(=O)N[C@@H](CC(C)C)C(=O)N[C@@H](CC(=O)O)C(=O)N[C@@H](CCCCN)C(=O)N[C@@H](CC(C)C)C(=O)N[C@@H](CCCCN)C(=O)N[C@@H](CS)C(=O)N[C@@H](CCCCN)C(=O)N[C@H](C(=O)N[C@H](C(=O)NCC(=O)NCC(=O)N[C@@H](CS)C(=O)O)[C@@H](C)O)[C@@H](C)CC)C(C)C)C(C)C)[C@@H](C)O)[C@@H](C)O` [PeNi11] (H-GILTDTLKGAAKNVAGVLLDKLKCKITGGC-OH; N-terminus and C-terminus assumed), the “inhibitory activity (asterisk)” value [1] is reported as 1087.* GILTDTLKGAAKNVAGVLLDKLKCKITGGC and the “MIC* (μg/mL) E. coli” value [2] is reported as 8 to 16 µg⁻¹ mL⁻¹.

In the case of `CC[C@H](C)[C@H](NC(=O)[C@H](CCCCN)NC(=O)[C@H](CC(=O)O)NC(=O)[C@H](CC(C)C)NC(=O)[C@@H](NC(=O)CNC(=O)[C@@H](NC(=O)[C@H](CO)NC(=O)[C@H](Cc1ccccc1)NC(=O)[C@H](CC(N)=O)NC(=O)[C@H](CCCCN)NC(=O)[C@@H](NC(=O)CNC(=O)[C@H](CCC(=O)O)NC(=O)[C@H](CCCCN)NC(=O)[C@@H](NC(=O)[C@@H](NC(=O)[C@@H](NC(=O)[C@H](Cc1c[nH]c2ccccc12)NC(=O)[C@H](CC(C)C)NC(=O)CN)[C@@H](C)O)[C@@H](C)O)[C@@H](C)CC)C(C)C)C(C)C)C(C)C)C(=O)N[C@@H](CCCNC(=N)N)C(=O)N[C@@H](CS)C(=O)N[C@@H](CCCCN)C(=O)N[C@H](C(=O)N[C@H](C(=O)NCC(=O)NCC(=O)N[C@@H](CS)C(=O)O)[C@@H](C)O)[C@@H](C)CC` [PeNi14] (H-GLWTTIKEGVKNFSVGVLDKIRCKITGGC-OH; N-terminus and C-terminus assumed), the “inhibitory activity (asterisk)” value [1] is reported as 15.* GLWTTIKEGVKNFSVGVLDKIRCKITGGC and the “MIC* (μg/mL) E. coli” value [2] is reported as 4 to 8 µg⁻¹ mL⁻¹.

In the case of `CC[C@H](C)[C@H](NC(=O)[C@@H](N)CCCCN)C(=O)N[C@@H](CCCCN)C(=O)N[C@H](C(=O)N1CCC[C@H]1C(=O)N[C@@H](Cc1c[nH]c2ccccc12)C(=O)NCC(=O)N[C@@H](CCCCN)C(=O)N[C@H](C(=O)N[C@@H](CCCCN)C(=O)N[C@@H](CC(=O)O)C(=O)N[C@@H](Cc1ccccc1)C(=O)N[C@@H](CC(C)C)C(=O)N[C@H](C(=O)NCC(=O)NCC(=O)N[C@@H](CCSC)C(=O)N[C@@H](CCCCN)C(=O)N[C@@H](C)C(=O)N[C@H](C(=O)NCC(=O)N[C@@H](CCCCN)C(=O)N[C@@H](CCCCN)C(=O)O)C(C)C)C(C)C)C(C)C)[C@@H](C)CC` [TeBi1] (H-KIKIPWGKVKDFLVGGMKAVGKK-OH), the “MIC (ug/mL) S. aureus” value [3] is reported as 4 to 8 µg/mL, the “MIC (ug/mL) S. Enteritidis” value [4] is reported as 4 to 8 µg/mL and the “MIC against E. coli” value [5] is reported as 1 to 2 µg/mL. The “MIC (ug/mL) E. coli” value [5] was 1 to 2 µg/mL, the “hemolytic activity” value [6] was “not hemolytic at the concentrations tested” and the viability at 4 h, 128 µg/mL [7] was 40%. The “cytotoxicity” value [8] was “low or no cytotoxicity at lower concentrations; also recorded: high levels of cytotoxicity at concentrations higher than their MICs” and the “MIC* (μg/mL) S. aureus” value [9] was 2 to 8 µg/mL.

With `CC(C)C[C@H](NC(=O)[C@H](CCCCN)NC(=O)[C@H](CCC(=O)O)NC(=O)[C@H](CC(C)C)NC(=O)[C@H](CCCNC(=N)N)NC(=O)[C@@H](NC(=O)[C@H](Cc1ccc(O)cc1)NC(=O)[C@H](CC(N)=O)NC(=O)[C@H](CCCCN)NC(=O)[C@H](CCCCN)NC(=O)[C@H](CC(N)=O)NC(=O)[C@@H](NC(=O)[C@H](CC(C)C)NC(=O)[C@H](CCCCN)NC(=O)[C@H](CCCCN)NC(=O)[C@@H](NC(=O)[C@H](CO)NC(=O)[C@H](CCCCN)NC(=O)[C@H](CO)NC(=O)[C@H](CC(C)C)NC(=O)[C@H](Cc1c[nH]c2ccccc12)NC(=O)[C@@H](N)CO)C(C)C)C(C)C)[C@@H](C)O)C(=O)N[C@@H](C)C(=O)N[C@@H](CCCCN)C(=O)N[C@@H](CCCCN)C(=O)N[C@@H](CCCCN)C(=O)N[C@@H](CC(C)C)C(=O)N[C@@H](Cc1ccccc1)C(=O)N[C@@H](CC(N)=O)C(=O)N[C@@H](CCC(=O)O)C(=O)O` [TeRu4] (H-SWLSKSVKKLVNKKNYTRLEKLAKKKLFNE-OH) the “MIC (ug/mL) S. aureus” value [3] was over 128 µg/mL, the “MIC against Salmonella Enteritidis” value [4] was 2 to 4 µg/mL and the “MIC (ug/mL) S. Enteritidis” value [4] was 2 to 4 µg/mL. The “MIC (ug/mL) E. coli” value [5] was 1 µg/mL (≈ 0.276 µM), the “hemolytic activity” value [6] was “not hemolytic at the concentrations tested; also recorded: not toxic against either porcine erythrocytes or HEK293 cells” and the “cytotoxicity” value [8] was “not to be toxic to HEK293 cells at any of the concentrations tested; also recorded: not toxic against either porcine erythrocytes or HEK293 cells”. The “MIC* (μg/mL) S. aureus” value [9] was over 128 µg/mL.
